Data published in patent publication US4428942A, “Analogs of somatostatin” (The Salk Institute for Biological Studies, priority 1982, dated 1984).
Like-named read-outs stand apart in the source and are kept apart here. Bridge positions count the residues as written; N and C are the ends. Square brackets hold non-standard residues; d marks the D form. Peptide text beside a SMILES is read from it.

How the values were obtained:
[1] = system: secretion of insulin; settings: in vivo
Method: (§1) In vivo experiments are carried out with the analogs, using the procedure described in Brown et al., Metabolism (1976) Vol. 25, pp. 1501-1503, to determine the potency, relative to somatostatin-14, to inhibit the secretion of glucagon and insulin stimulated by the administration of arginine to groups of six rats.

[2] = system: isolated rabbit ileum
Method: The analogs are tested in vitro in isolated rabbit ileum using the modified Ussing chamber technique, as described in Amer. J. of Physiol., 225:776-780 (1973). Unidirectional chloride fluxes are determined and used to characterize bi-directional fluxes following the addition of an SS-analog. Changes are measured with varying concentrations, and the potency to inhibit ion transport is quantitated and expressed as a percentage of the potency of SS-14.

[3] = system: release of growth hormone induced by isobutyl methyl xanthine in pituitary cells; assay type: cell-based, rat
Method: To determine the effectiveness of the peptides to inhibit the release of growth hormone, in vitro radioimmunoassays are carried out using the SS analogs in side-by-side comparison with equimolar concentrations of somatostatin-14 having a known effectiveness to inhibit the release of growth hormone induced by the application of isobutyl methyl xanthine to pituitary cells. Cultures are used which include cells of rat pituitary glands removed some four to five days previously in a system that minimizes enzymatic degradation, generally following the procedure set forth in Vale et al., Methods in Enzymology, Hormones and Cyclic Nucleotides (1975) Vol. 37, p. 82. Both cultures of a defined standard medium and cultures which are considered optimal for the secretion of growth hormone, as a result of having additions of either 2% or 10% of serum from a foetal calf, are used for the comparative testing.

[4] = system: secretion of glucagon; parameters: species or system rats; settings: in vivo
Method: as §1

[5] = arginine-stimulated, rats, SS-14 = 100
[6] = isolated rabbit ileum, Ussing chamber, chloride fluxes, SS-14 = 100
[7] = cultured rat pituitary cells, isobutyl methyl xanthine-induced release, SS-14 = 100

| Molecule | Insulin (potency to inhibit insulin secretion relative to SS-14) [1, 5] [%] | Ion Transport (potency to inhibit ion transport expressed as a percentage of the potency of SS-14) [2, 6] [%] | GH (potency for the inhibition of GH release relative to SS-14) [3, 7] [%] | Glucagon (potency to inhibit glucagon secretion relative to SS-14) [4, 5] [%] | Insulin (potency to inhibit insulin secretion relative to SS-14) ([1]; rat) [%] | Ion Transport (potency to inhibit ion transport expressed as a percentage of the potency of SS-14) [2] [%] | GH (potency for the inhibition of GH release relative to SS-14) [3] [%] | Glucagon (potency to inhibit glucagon secretion relative to SS-14) ([4]; rat) [%] |
| --- | --- | --- | --- | --- | --- | --- | --- | --- |
| C[C@@H](O)[C@@H]1NC(=O)[C@H](Cc2ccccc2)NC(=O)[C@H]([C@@H](C)O)NC(=O)[C@H](CCCCN)NC(=O)[C@H](Cc2c[nH]c3ccccc23)NC(=O)[C@H](Cc2ccccc2)NC(=O)[C@H](Cc2ccccc2)NC(=O)[C@H](CC(N)=O)NC(=O)[C@H](CCCCN)NC(=O)[C@@H](N)CSSC[C@@H](C(=O)O)NC(=O)[C@H](CO)NC1=O [Peptide 9, des-Ala^1,Gly^2 --SS] (H-CKNFFWKTFTSC-OH; disulfide 1-12) | 61 | 231 | 60 | – | – | – | – | – |
| des-AA^1,2,[β-Nal^11 ]--SS [Peptide 11] | – | 107 | – | – | – | – | – | – |
| C[C@H](N)C(=O)NCC(=O)N[C@H]1CSSC[C@@H](C(=O)O)NC(=O)[C@H](CO)NC(=O)[C@H]([C@@H](C)O)NC(=O)[C@H](Cc2ccccc2)NC(=O)[C@H]([C@@H](C)O)NC(=O)[C@H](CCCCN)NC(=O)[C@H](Cc2c[nH]c3ccccc23)NC(=O)[C@H](Cc2ccccc2)NC(=O)[C@H](Cc2ccccc2)NC(=O)[C@H](CCCCN)NC1=O [Peptide 13, des-Asn^5 --SS] (H-AGCKFFWKTFTSC-OH; disulfide 3-13) | 10 | 11 | 4 | < 1 | – | – | – | – |
| C[C@H](N)C(=O)NCC(=O)N[C@H]1CSSC[C@@H](C(=O)O)NC(=O)[C@H](CO)NC(=O)[C@H](Cc2ccccc2)NC(=O)[C@H]([C@@H](C)O)NC(=O)[C@H](CCCCN)NC(=O)[C@H](Cc2c[nH]c3ccccc23)NC(=O)[C@H](Cc2ccccc2)NC(=O)[C@H](Cc2ccccc2)NC(=O)[C@H](CC(N)=O)NC(=O)[C@H](CCCCN)NC1=O [Peptide 7, des-Thr^12 --SS] (H-AGCKNFFWKTFSC-OH; disulfide 3-13) | – | – | – | – | < 1 | 21 | 2 | < 1 |
| C[C@@H](O)[C@@H]1NC(=O)[C@H](CCCCN)NC(=O)[C@@H](Cc2c[nH]c3ccccc23)NC(=O)[C@H](Cc2ccccc2)NC(=O)[C@H](Cc2ccccc2)NC(=O)[C@@H](N)CSSC[C@@H](C(=O)O)NC(=O)[C@H](CO)NC(=O)[C@H](Cc2c[nH]c3ccccc23)NC1=O [Peptide 4, des-AA^1,2,4,5,12,[D-Trp^8,Trp^11]--SS] (H-CFF[dW]KTWSC-OH; disulfide 1-9) | – | – | – | – | – | 37 | – | – |
| C[C@H](N)C(=O)NCC(=O)N[C@H]1CSSC[C@@H](C(=O)O)NC(=O)[C@H](CO)NC(=O)[C@H]([C@@H](C)O)NC(=O)[C@H](C)NC(=O)[C@H]([C@@H](C)O)NC(=O)[C@H](CCCCN)NC(=O)[C@H](Cc2c[nH]c3ccccc23)NC(=O)[C@H](Cc2ccccc2)NC(=O)[C@H](Cc2ccccc2)NC(=O)[C@H](CC(N)=O)NC(=O)[C@H](CCCCN)NC1=O [Peptide 5, [Ala^11]--SS] (H-AGCKNFFWKTATSC-OH; disulfide 3-14) | – | – | – | – | < 10 | 52 | 3 | – |
| C[C@H](N)C(=O)NCC(=O)N[C@H]1CSSC[C@@H](C(=O)O)NC(=O)[C@H](CO)NC(=O)[C@H]([C@@H](C)O)NC(=O)[C@H]([C@@H](C)O)NC(=O)[C@H](CCCCN)NC(=O)[C@H](Cc2c[nH]c3ccccc23)NC(=O)[C@H](Cc2ccccc2)NC(=O)[C@H](Cc2ccccc2)NC(=O)[C@H](CC(N)=O)NC(=O)[C@H](CCCCN)NC1=O [Peptide 8, des-Phe^11 --SS] (H-AGCKNFFWKTTSC-OH; disulfide 3-13) | – | – | – | – | < 1 | 34 | 2 | < 1 |
| C[C@H](N)C(=O)NCC(=O)N[C@H]1CSSC[C@@H](C(=O)O)NC(=O)[C@H](CO)NC(=O)[C@H]([C@@H](C)O)NC(=O)[C@H](Cc2ccccc2)NC(=O)[C@H]([C@@H](C)O)NC(=O)[C@H](CCCCN)NC(=O)[C@H](Cc2c[nH]c3ccccc23)NC(=O)[C@H](Cc2ccccc2)NC(=O)[C@H](Cc2ccccc2)NC(=O)[C@H](CC(N)=O)NC(=O)[C@H](CCCCN)NC1=O [SS-14, somatostatin] | 100 | 100 | 100 | 100 | – | – | – | – |
| C[C@H](N)C(=O)NCC(=O)N[C@H]1CSSC[C@@H](C(=O)O)NC(=O)[C@H](CO)NC(=O)[C@H]([C@@H](C)O)NC(=O)[C@H](Cc2c[nH]cn2)NC(=O)[C@H]([C@@H](C)O)NC(=O)[C@H](CCCCN)NC(=O)[C@H](Cc2c[nH]c3ccccc23)NC(=O)[C@H](Cc2ccccc2)NC(=O)[C@H](Cc2ccccc2)NC(=O)[C@H](CC(N)=O)NC(=O)[C@H](CCCCN)NC1=O [Peptide 10, [His^11]--SS] (H-AGCKNFFWKTHTSC-OH; disulfide 3-14) | – | – | – | – | < 1 | 48 | – | < 1 |
| C[C@@H](O)[C@@H]1NC(=O)[C@H](CCCCN)NC(=O)[C@@H](Cc2c[nH]c3ccccc23)NC(=O)[C@H](Cc2ccccc2)NC(=O)[C@H](Cc2ccccc2)NC(=O)[C@@H](N)CSSC[C@@H](C(=O)O)NC(=O)[C@H](CO)NC(=O)[C@H](Cc2ccccc2)NC1=O [Peptide 6, des-AA^1,2,4,5,12,[D-Trp^8]--SS] (H-CFF[dW]KTFSC-OH; disulfide 1-9) | – | – | – | – | 70 | 257 | 45 | 20 |
| C[C@H](N)C(=O)NCC(=O)N[C@H]1CSSC[C@@H](C(=O)O)NC(=O)[C@H](CO)NC(=O)[C@H]([C@@H](C)O)NC(=O)[C@H](CCCNC(=N)N)NC(=O)[C@H]([C@@H](C)O)NC(=O)[C@H](CCCCN)NC(=O)[C@H](Cc2c[nH]c3ccccc23)NC(=O)[C@H](Cc2ccccc2)NC(=O)[C@H](Cc2ccccc2)NC(=O)[C@H](CC(N)=O)NC(=O)[C@H](CCCCN)NC1=O [Peptide 2, [Arg^11]--SS] (H-AGCKNFFWKTRTSC-OH; disulfide 3-14) | – | – | – | – | 142 | 291 | – | < 1 |
| C[C@H](N)C(=O)NCC(=O)N[C@H]1CSSC[C@H](C(=O)O)NC(=O)[C@H](CO)NC(=O)[C@H]([C@@H](C)O)NC(=O)[C@H](Cc2ccccc2)NC(=O)[C@H]([C@@H](C)O)NC(=O)[C@H](CCCCN)NC(=O)[C@H](Cc2c[nH]c3ccccc23)NC(=O)[C@H](Cc2ccccc2)NC(=O)[C@H](Cc2ccccc2)NC(=O)[C@H](CC(N)=O)NC(=O)[C@H](CCCCN)NC1=O [Peptide 17, [D-Cys^14]--SS] | 20 | 336 | 270 | 310 | – | – | – | – |
| C[C@H](N)C(=O)NCC(=O)N[C@H]1CSSC[C@@H](C(=O)O)NC(=O)[C@H](CO)NC(=O)[C@H]([C@@H](C)O)NC(=O)[C@H](CCC(=O)O)NC(=O)[C@H]([C@@H](C)O)NC(=O)[C@H](CCCCN)NC(=O)[C@H](Cc2c[nH]c3ccccc23)NC(=O)[C@H](Cc2ccccc2)NC(=O)[C@H](Cc2ccccc2)NC(=O)[C@H](CC(N)=O)NC(=O)[C@H](CCCCN)NC1=O [Peptide 12, [Glu^11]--SS] (H-AGCKNFFWKTETSC-OH; disulfide 3-14) | – | – | – | – | < 1 | 9 | – | < 1 |
| C[C@@H](O)[C@@H]1NC(=O)[C@H](Cc2c[nH]c3ccccc23)NC(=O)[C@H]([C@@H](C)O)NC(=O)[C@H](CCCCN)NC(=O)[C@H](Cc2c[nH]c3ccccc23)NC(=O)[C@H](Cc2ccccc2)NC(=O)[C@H](Cc2ccccc2)NC(=O)[C@H](CC(N)=O)NC(=O)[C@H](CCCCN)NC(=O)[C@@H](N)CSSC[C@@H](C(=O)O)NC(=O)[C@H](CO)NC1=O [Peptide 3, des-AA^1,2,[Trp^11]--SS] (H-CKNFFWKTWTSC-OH; disulfide 1-12) | – | – | – | – | – | 405 | – | – |
